Data taken from PMC12373846, “Hemoglobin as a pseudoperoxidase and drug target for oxidative stress-related diseases” (Signal Transduction and Targeted Therapy, 2025).
Where a name gives a salt, the structure may show the parent alone. Read-outs that look alike come from different tables or passages of the source.

Key:
[1] = molecular target: T1, Hb (Homo sapiens, UniProt P68871); assay: ROS-Glo H2O2 assay with Hb; assay type: biochemical
T1 construct: purchased Sigma-Aldrich H7379
Procedure: Hb (Sigma‒Aldrich, H7379), H2O2 (Sigma‒Aldrich, H1009), and Amplex Red reagents (Invitrogen, A12222) were obtained for the study. A 4 μM H2O2 solution was prepared in 50 mM sodium phosphate buffer (pH 7.2). Then, 49 μl of this mixture was mixed with 1 μl of the test compound in DMSO or distilled water. The mixture was combined with an assay mixture of Amplex Red reagent (20 mM stock to 0.1 mM) and HRP (200 U/ml stock to 0.2 U/ml) and added to the wells at 50 μl/well. After a 60-min incubation at 37 °C, resorufin production was quantified via a microplate fluorescence reader (SpectraMax iD5, Molecular Devices) at ex/em = 535/580 nm. […] For the ROS-Glo assay, the H2O2 substrate solution and ROS-Glo detection solution were prepared according to the manufacturer’s instructions. 10 μM H2O2 and drugs were prepared as in the Amplex Red assay, with HRP, Hb, CAT, or GPx added as needed. The mixture was added to the wells at 100 μl/well and incubated for 60 min at 37 °C. H2O2 substrate solution was added, and the mixture was incubated at room temperature for 30 min. After the H2O2 substrate solution was added and incubated at room temperature for 30 min, the ROS-Glo detection solution was added, and the mixture was incubated for 15 min. Luminescence was measured via iD5 microplate readers. […] The U/ml was calculated on the basis of the amount of H2O2 reduced by Hb during the reaction, using μg/ml and U/mg.
To evaluate the extent of peroxidase function facilitation by HTPEB (1 μM) and KDS12025 (1 μM) in HRP (0.2 U/ml) and Hb (10 μg/ml), we used the ROS-Glo assay over 30 and 60 min. The fold change was calculated by dividing the delta values during the 30-min reaction for the vehicle over drug conditions.
To assess enzyme activity, the amount of H2O2 consumed over a specific time was quantified alongside a standard curve. For the peroxidase function of Hb, Hb was administered at doses ranging from 0.01 to 112 U/ml and preincubated with H2O2 and either DMSO, HTPEB (1 μM), or KDS12025 (1 μM) at 37 °C for 30 min. The remaining H2O2 was measured via the ROS-Glo assay and normalized against conditions without Hb. The dose‒response curve, EC50, and EC20 for H2O2 decomposition were calculated and determined by fitting the data with GraphPad Prism software. The fitting method had no special handling of outliers, and least squares regression with confidence intervals of the parameters was 95%.

[2] = molecular target: T2, HRP (Armoracia rusticana, UniProt P00433); assay: H2O2 assay with HRP (HRP-EC50); assay type: biochemical, horseradish
T2 sequence (P00433 31-353): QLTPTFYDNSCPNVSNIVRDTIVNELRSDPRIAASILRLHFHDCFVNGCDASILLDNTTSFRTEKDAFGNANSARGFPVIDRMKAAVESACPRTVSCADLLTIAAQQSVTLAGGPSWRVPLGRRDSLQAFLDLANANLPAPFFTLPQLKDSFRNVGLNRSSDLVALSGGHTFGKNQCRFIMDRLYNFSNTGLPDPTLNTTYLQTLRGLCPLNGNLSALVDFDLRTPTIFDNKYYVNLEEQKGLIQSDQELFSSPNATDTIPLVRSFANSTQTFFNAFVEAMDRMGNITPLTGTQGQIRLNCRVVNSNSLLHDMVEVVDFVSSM
Procedure: Hb (Sigma‒Aldrich, H7379), H2O2 (Sigma‒Aldrich, H1009), and Amplex Red reagents (Invitrogen, A12222) were obtained for the study. A 4 μM H2O2 solution was prepared in 50 mM sodium phosphate buffer (pH 7.2). Then, 49 μl of this mixture was mixed with 1 μl of the test compound in DMSO or distilled water. The mixture was combined with an assay mixture of Amplex Red reagent (20 mM stock to 0.1 mM) and HRP (200 U/ml stock to 0.2 U/ml) and added to the wells at 50 μl/well. After a 60-min incubation at 37 °C, resorufin production was quantified via a microplate fluorescence reader (SpectraMax iD5, Molecular Devices) at ex/em = 535/580 nm. The H2O2-decomposing activity was estimated via the following equation: (sample fluorescence-blank fluorescence)/(control […]-blank fluorescence) × 100. For the ROS-Glo assay, the H2O2 substrate solution and ROS-Glo detection solution were prepared according to the manufacturer’s instructions. 10 μM H2O2 and drugs were prepared as in the Amplex Red assay, with HRP, Hb, CAT, or GPx added as needed. The mixture was added to the wells at 100 μl/well and incubated for 60 min at 37 °C. H2O2 substrate solution was added, and the mixture was incubated at room temperature for 30 min. After the H2O2 substrate solution was added and incubated at room temperature for 30 min, the ROS-Glo detection solution was added, and the mixture was incubated for 15 min. Luminescence was measured via iD5 microplate readers. The H2O2-decomposing activity was estimated via the following equation: (sample luminescence-blank luminescence)/(control luminescence-blank luminescence) × 100. The U/ml was calculated on the basis of the amount of H2O2 reduced by Hb during the reaction, using μg/ml and U/mg.

[3] = tested on: primary cultured hippocampal astrocytes; assay: oROS-G intracellular H2O2 imaging; assay type: cell-based, mouse
Procedure: (§1) Primary hippocampal astrocytes were obtained from postnatal day 0‒2 (P0‒2) C57BL/6 mice as previously described.[73] The hippocampal tissue was dissected free of meninges, minced, and dissociated into a single-cell suspension by trituration. The cells were grown in Dulbecco’s modified Eagle’s medium supplemented with D-glucose (4500 mg/L), L-glutamine, sodium pyruvate (110 mg/L), 10% heat-inactivated horse serum, 10% heat-inactivated fetal bovine serum, and 1000 U/ml penicillin‒streptomycin. The cells were maintained at 37 °C in a humidified atmosphere containing 5% CO2.
H2O2 specific, highly sensitive, and fast on-and-off kinetics, a genetically encoded oROS-G plasmid kindly provided by Dr. Andre Berndt. oROS-G was cloned under the GFAP104 promoter and delivered into primary cultured hippocampal astrocytes via the NeoN^TM transfection system (Invitrogen). The cells were treated with various concentrations of Aβ (1 to 10 μM) or 6-OHDA (Tocris, 2547; 10 to 50 μM) to induce aberrant H2O2. For subsequent experiments, 5 μM Aβ and 30 μM 6-OHDA were selected on the basis of initial dose‒response studies. KDS12025 (10 μM) and sodium pyruvate (1 mM) were applied as indicated in each experiment. For live-cell imaging, astrocytes were maintained in a humidified chamber at 37 °C with 5% […] during imaging to preserve physiological conditions. Changes in the fluorescence of oROS-G were recorded via an A1 Nikon confocal microscope equipped with a temperature- and humidity-controlled stage. Images were captured every 20 min for up to 40 h (20for the 6-OHDA experiments) via the NIS-Elements software (Nikon, Japan) for time-lapse imaging. The excitation and emission wavelengths for oROS-G fluorescence were set to 485 nm and 538 nm, respectively. Endpoint fluorescence measurements were also collected for KDS12025 dose-dependent experiments. To analyze the fluorescence intensity, individual regions of interest (ROIs) were manually selected for each astrocyte via NIS-Elements software (Nikon, Japan). The fluorescence intensity changes were normalized to the baseline values (ΔF/F0) to quantify the H2O2 dynamics. To determine the EC50 of KDS12025, endpoint fluorescence intensity data from oROS-G experiments were normalized to those of the Aβ+vehicle control group. The normalized data were analyzed via GraphPad Prism software to fit a four-parameter logistic curve, yielding the EC50 value for the H2O2-decomposing activity of KDS12025.

[4] = PAMPA BBB permeability; assay type: in vitro ADME; settings: for BCS code: CNS +/- classification: 50 μM, 4 h; for Papp at 4 h, 50 μM: PAMPA, pH 7.4, 50 μM
Procedure: A parallel artificial membrane permeability assay (PAMPA)^70 was performed to validate the blood-brain barrier permeability of KDS12025. The procedure began by preparing a donor solution of the compound in a pH 7.4 donor buffer. This solution was added to the wells of a deep well plate, followed by the addition of a high-sensitivity UV plate filled with donor buffer to serve as the blank sample. An initial sample for the UV plate was taken to establish a baseline reading. The PAMPA sandwich was then assembled by adding the donor plate mixture to the donor plate well, followed by placing a BBB-lipid coated membrane on top and an acceptor plate filled with acceptor buffer. This setup was incubated at 25 °C for a specific duration to allow diffusion. Post-incubation, a sample from the acceptor plate was taken, and the UV absorbance was measured to determine the permeated amount of the test compound. The permeability was then calculated using the PAMPA explorer program, considering the initial donor concentration and the acceptor's concentration after incubation.

[5] = tested on: primary cultured hippocampal astrocytes; assay: DCFDA intracellular ROS assay; assay type: cell-based, mouse; settings: Aβ 5μM + sodium pyruvate 1mM, Fig. 3e
Procedure: as §1
The intracellular ROS levels of astrocytes were determined via 2′,7′- dichlorodihydrofluorescein diacetate (DCFDA; Thermo Fisher). Primary cultured hippocampal astrocytes were seeded into black 96-well plates (Ibidi) at a density of 5 × 10⁴ cells per well. The plates were incubated with oligomerized Aβ42 in the presence of KDS12008, KDS12017, KDS12025, HTPEB (10 µM each), and sodium pyruvate (1 mM). These cells were subsequently washed with Ca^2+ and Mg^2+-containing PBS, followed by the application of 30 µM DCFDA and incubation at 37 °C for 30 min in a dark incubator. The mean fluorescence intensity of each well was measured via iD5 microplate readers at 485 nm and 530 nm. The fluorescence values were calculated by subtracting the blank readings and normalizing them to those of the control group.

[6] = Tables S2, S3, read-out: HRP-EC50
[7] = Tables S2, S3, read-out: HB-EC50
[8] = read-out: BCS code: permeability classification

T1 sequence (P68871 2-147 limits assumed): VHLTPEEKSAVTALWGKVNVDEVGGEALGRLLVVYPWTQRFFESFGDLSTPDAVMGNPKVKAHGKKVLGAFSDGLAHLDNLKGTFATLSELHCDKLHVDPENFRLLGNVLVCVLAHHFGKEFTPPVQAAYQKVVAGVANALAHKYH
T1 sequence (P69905 2-142 partner limits assumed): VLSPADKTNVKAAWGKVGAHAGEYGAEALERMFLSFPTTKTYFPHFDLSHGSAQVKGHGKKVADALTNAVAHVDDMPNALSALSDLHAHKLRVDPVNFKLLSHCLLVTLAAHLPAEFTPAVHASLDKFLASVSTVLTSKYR

SMILES	EC50 [2, 6]	EC50 [1, 7]	other results
NCCc1ccc(C(F)(F)F)cc1 [2-(4-(Trifluoromethyl)phenyl)ethylamine, reference compound]	–	–	EC50 [1]: > 10000 nM; EC50 [2]: > 10000 nM
NCCc1cc(O)c(O)cc1O [6-OHDA, 6-hydroxydopamine, reference compound]	–	–	oROS-G H2O2 level ([3]; 6-OHDA 10μM, Fig. 3j): 153.8±24.7; oROS-G H2O2 level ([3]; 6-OHDA 30μM, Fig. 3j): 211.9±18.2; oROS-G H2O2 level ([3]; 6-OHDA 50μM, Fig. 3j): 271.2±14.8
FC(F)(F)c1ccc(CCNc2ccccc2)cc1 [7b, N-(4-(trifluoromethyl)phenethyl)aniline]	> 10000 nM	–	–
Oc1ccc(NCCc2ccc(C(F)(F)F)cc2)cc1 [7c, 4-((4-(trifluoromethyl)phenethyl)amino)phenol]	> 10000 nM	5090 nM	–
COc1ccc(NCCc2ccc(C(F)(F)F)cc2)cc1 [7d, 4-methoxy-N-(4-(trifluoromethyl)phenethyl)aniline]	13300 nM	23400 nM	–
O=C(O)c1cccc(NCCc2ccc(C(F)(F)F)cc2)c1 [7e, 3-((4-(trifluoromethyl)phenethyl)amino)benzoic acid]	> 10000 nM	> 10000 nM	–
O=C(O)c1ccc(NCCc2ccc(C(F)(F)F)cc2)cc1 [7f, 4-((4-(trifluoromethyl)phenethyl)amino)benzoic acid]	22100 nM	> 10000 nM	–
CNc1ccc(NCCc2cccc(OC)c2)cc1 [8d, N^1-(3-methoxyphenethyl)-N^4-methylbenzene-1,4-diamine hydrochloride salt]	516 nM	85.5 nM	–
CNc1ccc(NCCc2ccc(OC)cc2)cc1 [8e, N^1-(4-methoxyphenethyl)-N^4-methylbenzene-1,4-diamine]	790 nM	69.5 nM	–
CNc1ccc(NCCc2ccccc2)cc1 [8f, N^1-methyl-N^4-phenethylbenzene-1,4-diamine hydrochloride salt]	897 nM	78.1 nM	–
CNc1ccc(NCCc2cccc(C(F)(F)F)c2)cc1 [8g, N^1-methyl-N^4-(3-(trifluoromethyl)phenethyl)benzene-1,4-diamine hydrochloride salt]	378 nM	88.4 nM	–
CNc1ccc(NCCc2ccccc2C(F)(F)F)cc1 [8h, N^1-methyl-N^4-(2-(trifluoromethyl)phenethyl)benzene-1,4-diamine hydrochloride salt]	500 nM	69.1 nM	–
Nc1ccc(O)c(C(=O)O)c1 [Mesalazine, reference compound]	3600 nM	213 nM	–
CC(=O)[C@H]1CC[C@H]2[C@@H]3CCC4=CC(=O)CC[C@]4(C)[C@H]3CC[C@]12C [Progesterone]	–	–	BCS code: CNS +/- classification [4]: + (> 10); Papp at 4 h, 50 μM ([4]; U.V, read-out: Pe (PAMPA BBB permeability)): 42.2 ×10⁻⁶ cm/s; Papp at 4 h, 50 μM [4, 8]: > 0.4 ×10⁻⁶ cm/s
CNC(=C[N+](=O)[O-])NCCSCc1ccc(CN(C)C)o1 [Ranitidine]	–	–	BCS code: CNS +/- classification [4]: - (< 10); Papp at 4 h, 50 μM [4, 8]: < 0.4 ×10⁻⁶ cm/s
O=C(O)c1ccccc1O [Salicylic Acid, reference compound]	> 10000 nM	> 10000 nM	–
CC(=O)C(=O)[O-].[Na+] [Sodium pyruvate, sodium pyruvate, reference compound]	–	–	Aβ-induced ROS level (DCFDA), normalized to control [5]: 149.1±6.194; oROS-G H2O2 level ([3]; 6-OHDA 30 μM + sodium pyruvate, Fig. 3k): 177.0±17.5; oROS-G H2O2 level, 40-h imaging ([3]; Aβ 5 μM + sodium pyruvate 1 mM, Fig. 3h): 137.5±9.751; oROS-G H2O2 level, 40-h imaging ([3]; putrescine 180 μM + sodium pyruvate 1 mM, Fig. 3i): 189.0±23.55
Cc1ccc(O)c(C(=O)O)c1 [p-Cresotic acid, reference compound]	> 10000 nM	> 10000 nM	–
